In patent US5021236A, “Method of enhancing NMR imaging using chelated paramagnetic ions bound to biomolecules” (Schering Aktiengesellschaft, priority 1981, dated 1991):

Assays:
[1] = aqueous solubility; assay type: physicochemical; details: in water
[2] = NMR detection of a defective blood-brain barrier in the region of a cranial abscess; assay type: in vivo; details: NMR diagnosis; complex in the form of salts with good aqueous solubility; preferably 0.1-0.5 mmole/kg
Text: In contrast to conventional X-ray diagnosis with radiopaque X-ray contrast media, in NMR diagnosis with paramagnetic contrast medium there is no linear dependence of the signal enhancement on the concentration used. […] For this reason, it was surprising that some pathological processes can be seen only after application of a strongly paramagnetic contrast medium, according to the invention, higher than the doses indicated in EP No. 71564 (which can be from 0.001 mmole/kg to 5 mmole/kg). […] For a dose greater than 0.1 mmole/kg, solutions of high concentrations up to 1 mole/l, preferably 0.25 to 0.75 mole/l, are necessary, since only in this way is the volume load reduced and handling of the injection solution assured.

Row | SMILES | aqueous solubility [1] | dose at which a defective blood-brain barrier can be detected [2]
1 | O=C([O-])CN(CCN(CC(=O)[O-])CC(=O)NCCCCCCCCCCC(=O)O)CCN(CC(=O)[O-])CC(=O)NCCCCCCCCCCC(=O)O.[Gd+3] [Gadolinium(III) complex of 13,23-dioxo-15,18,21-tris(carboxymethyl)-12,15,18,21,24-pentaazapentatriacontanedioic acid] | insoluble in water | –
2 | O=C([O-])CN(CCN(CC(=O)[O-])CC(=O)O)CCN(CC(=O)[O-])CC(=O)O.[Gd+3] [gadolinium diethylenetriaminepentaacetic acid] | – | 0.05 to 2.5 mmol/kg
3 | O=C(O)CN(CC(=O)O)C1CCCCC1N(CC(=O)O)CC(=O)O.[Mn] (stereo not shown) [manganese-1,2-cyclohexenediaminetetraacetic acid] | – | 0.05 to 2.5 mmol/kg
4 | O=C([O-])CCCCCCCCCCNC(=O)CN(CCN(CCN(CC(=O)[O-])CC(=O)NCCCCCCCCCCC(=O)[O-])CC(=O)[O-])CC(=O)[O-].[Gd+3].[Na+].[Na+] [Example 2, disodium salt of gadolinium(III) complex of 13,23-dioxo-15,18,21-tris(carboxymethyl)-12,15,18,21,24-pentaazapentatriacontanedioic acid] | good aqueous solubility | –
